In brackets after ≈: the same amount, converted by molar mass. Like-named read-outs stand apart in the source and are kept apart here.
Experiments:
[1] = Water solubility of test solutions; assay type: physicochemical; settings: solutions diluted in water, 2.5% m ethanol; precipitates formed
Method: Tests have been conducted on Gram-positive bacteria with methyl glucopyranoside derivatives. […] After sterilization the solutions are diluted in water. […] Because precipitates formed in the solutions, the effect of these methyl glucopyranoside C10 and C12 acetals was not able to be evaluated. The results obtained for antimicrobial tests on the 3 bacterial strains L. monocytogenes (CIP 103575), E. faecalis (ATCC® 29212) and S. aureus (ATCC® […]) are summarized in Table 1.

[2] = test system: L. monocytogenes strains (CIP 103575, LM1, LM2, LM3); experiment: MIC on a wider panel of strains (Example 10), microdilution; assay type: cell-based; settings: Listeria monocytogenes, CIP103575
Method: The cultures studied, freshly isolated (after incubation on a blood agar at 37° C. for 18 h), are taken up in sterile water (10 mL) until obtaining a 0.5 McFarland (Mc) suspension i.e. 1 to 1 to 2×10^8 CFU (bacteria)/cm^3. The bacterial suspension was then diluted to obtain a final concentration of 1×10^6 CFU/cm^3. Each well contains an identical quantity of Mueller-Hinton medium (a rich medium for bacterial culture) and bacteria with final [concentration of] 0.5×10^6 CFU/cm^3. The test compounds of interest are solubilized in ethanol or DMSO at 25 mg/mL before being diluted to different concentrations two by two. On the multiwell plate, a first series has been planned comprising the culture medium without the test compound of interest. It corresponds to the growth control (control well). These controls serve as reference for comparing bacterial growth with that of the subsequent wells comprising different concentrations of the test compound of interest. The second series of wells comprises the mother solution for the test compound of interest for a concentration in the wells of 256 mg/L (7 mM). Each series of wells was diluted two by two until the last series for a final concentration of 0.25 mg/L (0.0007 mM). Each concentration is duplicated in the same plate. The plate is incubated for 18 h at 37° C. […] If there is antibacterial activity, the bacterial growth is inhibited, which means that no turbidity or bacterial residue is present. The minimum inhibitory concentrations (MIC) are tested on Gram-positive bacterial strains according to the recommendations of the “Clinical Laboratory Standards Institute” (Clinical-Laboratory-Standards-Institute, 6th ed. Approved standard M100-S17. CLSI, Wayne, Pa., 2007). The clinical strains have been isolated in the Hospice de Lyon. Listeria: L. monocytogenes (CIP 103575), clinical strain isolated from hemoculture (015189074801, LM1), a strain isolated from cerebrospinal liquid (015170199001, LM2), clinical strains isolated from hemoculture (015181840701, LM3). The cultures studied, freshly isolated (after incubation on a blood agar at 37° C. for 18 h), are taken up in sterile water (10 mL) until obtaining a 0.5 McFarland (Mc) suspension i.e. At 10^8 CFU (bacteria)/cm^3. The bacterial suspension was then diluted to obtain a final concentration of 10^6 CFU/cm^3.

[3] = L. monocytogenes CIP 103575, read-out: MIC Listeria CIP 103575

water solubility [1] | MIC [2, 3] [µg/mL] | MIC ([2]; clinical strain from hemoculture 015181840701, read-out: MIC Listeria LM3) [µg/mL] | MIC ([2]; clinical strain from hemoculture 015189074801, read-out: MIC Listeria LM1) [µg/mL] | MIC ([2]; strain from cerebrospinal liquid 015170199001, read-out: MIC Listeria LM2) [µg/mL] | Compound
low water solubility | 64 (≈ 178 µM) |  |  |  | CCCCCCCCCCCC1OCC2O[C@H](OC)C(O)C(O)[C@@H]2O1 (stereo partly drawn) [Compound 1e, Methyl 4,6-O-Dodecylidene α-D-glucopyranoside]
 | 16 (≈ 44.4 µM) | 64 (≈ 178 µM) | 16 (≈ 44.4 µM) | 16 (≈ 44.4 µM) | CCCCCCCCCCCC1OCC2O[C@@H](OC)C(O)C(O)[C@@H]2O1 (stereo partly drawn) [Compound 1f, Methyl 4,6-O-Dodecylidene β-D-glucopyranoside]

Source: patent US10537103B2, “Antibacterial composition containing an isomer mixture of monosaccharide alkyl monoacetals or monoethers” (TEREOS STARCH & SWEETENERS BELGIUM, priority 2014, dated 2020)
